Measured values reported in publication PMC6128562, “Evaluation of cytotoxicity features of antimicrobial peptides with potential to control bacterial diseases of citrus” (PLoS ONE, 2018).
Where no end group is shown, it is not given here.

Columns and labels:
human erythrocytes = conditions: cited from earlier work
Excerpt: Ocellatin4 ([…]-NH(2)) is a cytolytic peptide obtained from skin secretion of the South American frog Leptodactylus ocellatus. The analogue of this peptide named as, Ocellatin4-analogue ([…]) has positive charge at its N-terminus (lysine residue), similarly to K^0-W^6-Hy-a1.

[1] = tested on: Galleria mellonella larvae; experiment: Toxicity in Galleria mellonella larvae; assay type: in vivo; conditions: for Median (%survival): over Experiments 1 and 2; for survival percentages of larvae: at 64 and 128 μM
Procedure: The peptides citrus–amp1 and citrus–amp2 were selected for toxicity assay in G. mellonella. Larvae with 0.15 to 0.20 g were randomly selected for the experiments and were kept without food in Petri plates at 37°C in the dark for 24 h prior to use. Each larva was injected with 10 μL of peptides at 64 and 128 μM into the last proleg using a Hamilton micro-syringe. […] The larvae were incubated at 37°C and survival was evaluated daily for 7 days. Group of 8–9 larvae was used to each concentration of peptides and 10 μL of PBS was injected in the control group. Two independent experiments were performed.

Methylobacterium sp. = assay type: cell-based; conditions: ND = higher than the concentrations evaluated
Excerpt: (§1) Two important citrus pathogenic bacteria were addressed in our study: X.citri (isolate 306), the causal agent of citrus canker, and CaLas, causal agent of HLB. Since the latter cannot be cultivated in vitro, surrogates phylogenetically related to CaLas were used in the assays. The surrogates chosen were S. meliloti SEMIA 165 (= USDA 1002) and A. tumefaciens (GV3101/PMP90), provided by FEPAGRO (Fundação Estadual de Pesquisa Agropecuária) and by Dr. Janete Desidério, UNESP (Universidade Estadual Paulista, Jaboticabal, São Paulo, Brazil). The effect of the AMPs on Methylobacterium sp., an endophytic commonly found at citrus in Brazil and kindly provided by Dr. Wellington Luiz Araújo, Instituto de Ciências Biomédicas, Universidade de São Paulo, Brazil, was also assessed. Methylobacterium sp. and X.citri was cultured in NBY solid medium and then in NBY liquid medium according to Amaral et al. for 48 hours at 28°C and 180 rpm. S. meliloti and A. tumefaciens were grown in YM medium (Yeast Mannitol Medium) (0.5 g/L KH2PO4, 0.2 g/L MgSO4 7.H2O, 0.1g/L NaCl, 10 g/L mannitol, 0.5 g/L yeast extract, 9g/L agar, pH 6.8) and then in YM liquid medium for 48 hours at 28°C and 180 rpm. In addition to the in vitro assays, X.citri::GFP [35], obtained from Dr. Adrián A. Vojnov (Instituto de Ciencia y Tecnología Dr. Cesar Milstein, Fundación Pablo Cassará, Consejo Nacional de Investigaciones Científicas y Técnicas (CONICET), Buenos Aires / Argentina), was used for the in vivo assays.
(§2) Antimicrobial peptide activity was performed in vitro using a microliter plate assay (96 well cell culture cluster—Costar®3599). Fifty microliters of inoculum at 10^4 CFU/mL prepared in PBS buffer (Phosphate buffered saline) was mixed with 50 μL of the peptide diluted in distilled water filter sterilized (dH2O). The final concentration of peptide evaluated ranged from 1–64 μM, and hylin-a1 and PBS were used as positive and negative control for AMP, respectively. […] Three replicates were prepared for each concentration evaluated.
(§3) At the end of the growth incubation, minimum bactericidal concentration (MBC) for each organism was determined by serial dilution using the microdrop technique, as described elsewhere. The Petri dishes were maintained at 28°C for three days to obtain CFU/mL.

[2] = tested on: Sinorhizobium meliloti SEMIA 165; assay type: cell-based; conditions: ND = higher than the concentrations evaluated; for MIC S. meliloti: microplate, inoculum 10^4 CFU/mL in PBS, peptide 1–64 μM, 595 nm, three replicates; for MBC S. meliloti: serial dilution, microdrop technique, 28°C three days
Excerpt: as §1, §2, §3

[3] = tested on: Xanthomonas citri subsp. citri (X.citri, isolate 306); assay type: cell-based; conditions: ND = higher than the concentrations evaluated
Excerpt: as §1, §2, §3

U87 MG cells = experiment: Cytotoxicity in U87 MG cells (alamarBlue); assay type: cell-based, human; conditions: concentrations of 1–128 μM, 24 h
Procedure: U87 MG, a human Glioblastoma cell line frequently used as a model for cytotoxicity evaluation was adopted in our study for the peptides citrus–amp1 and citrus–amp2. Cells were plated in 96 wells plate (5x10^4 cells per well), incubated overnight and maintained in a humidified atmosphere at 37°C and 5% CO2. After the incubation period, cells were treated with peptides varying from 1μM to 128 μM and then incubated for 24h. Untreated and cells treated with DMSO (dimethyl sulfoxide) were used as positive and negative control for the viability of U87 MG cells. Six replicates were done by each concentration.
Cytotoxicity was performed using alamarBlue® cell viability reagent, a cell health indicator, through the reduction of […] of living cells. Viable cells convert Resazurin (blue) to resorufin, a compound that emits red fluorescent light. Alamar Blue medium was prepared by mixing medium with alamarBlue solution (Thermo Ficher Scientific) in a ratio of 10:1. After treatment with the peptides for 24 h, the medium was discarded, and Alamar Blue medium (100 μL) was transferred to a 96-well microplate. The microplates were incubated with Alamar Blue at 37°C for 4 h, and absorbance was measured using Epoch2 Microplate Reader (Biotek) in 570 nm. Cell viability was calculated using the ratio of the absorbance between treated and untreated cells and the data were expressed as percentages. […]

tobacco leaves = conditions: 24 hpi; leaves started to dry out 12 hpi; cited from earlier work
Procedure: The peptide Hylin-1 and PBS buffer were used as positive and negative controls of the phytotoxicity assay, respectively. At seven days post inoculation (7 dpi), visual evaluation was performed in detached leaves. […] Makovitzki et al. assessed the toxicity of peptide C14-KLLK in tobacco leaves.

[4] = 64 µM, Experiment 1, 7 days, n=8–9 larvae
[5] = 64 µM, Experiment 2, 7 days, n=8–9 larvae
[6] = 128 µM, Experiment 1, 7 days, n=8–9 larvae
[7] = 128 µM, Experiment 2, 7 days, n=8–9 larvae
[8] = 10 μL of 64 μM injected, 37°C, 7 days, mean±SD of two experiments, 8–9 larvae
[9] = 10 μL of 128 μM injected, 37°C, 7 days, mean±SD of two experiments, 8–9 larvae
[10] = microplate, inoculum 10^4 CFU/mL in PBS, peptide 1–64 μM, 595 nm, three replicates
[11] = serial dilution, microdrop technique, 28°C three days

Substance	% survival [1, 4] [%]	% survival [1, 5] [%]	Median (%survival) ([1]; 64 µM) [%]	% survival [1, 6] [%]	% survival [1, 7] [%]	Median (%survival) ([1]; 128 µM) [%]	% survival [1, 8] [%]	% survival [1, 9] [%]	survival percentages of larvae [1] [%]	MIC S. meliloti [2] [µM]	MBC S. meliloti [2] [µM]	other results
GLLDFVTGVGKDIFAQLIKQI-NH(2) [ocellatin 4, cytolytic peptide from skin secretion of the frog Leptodactylus ocellatus]												activity on human erythrocytes at (human erythrocytes): 14.3 mmol/L
IETFLKQLRSAANKIVGL [Citrus-amp1]	88.9	88.9	88.9	100	88.9	94.5	88.89 ± 0	94.50 ± 7.85	> 87			
KIFGAIWPLALGALKNLIK [K^0-W^6-Hy-a1]										4	62	MIC Met sp. (Methylobacterium sp.; [10]): 4 µM; MBC Met sp. (Methylobacterium sp.; [11]): 8 µM; MIC X.ciri [3, 10]: 2 µM; MBC X.ciri [3, 11]: 2 µM
LESLASSAVRTANKARAKL [Citrus-amp2]	100	75	87.5	100	87.5	93.8	87.50 ± 17.68	93.75 ± 8.84	> 87	64	64	viability percentages of cells (U87 MG cells): > 70%
mellittin												toxicity in tobacco leaves at the inoculation point (tobacco leaves): necrosis
